{"source": "ChEMBL document CHEMBL4219119", "about": "“Benzoxazin-4-ones as novel, easily accessible inhibitors for rhomboid proteases” (Bioorg Med Chem Lett, 2018)", "key": {"[1]": {"assay": "Competitive inhibition of Escherichia coli rhomboid GlpG preincubated for 30 mins followed by FP-Rh addition measured after 1 hr by gel-based ABPP method"}, "[2]": {"target": "T1, Rhomboid protease GluP (Bacillus subtilis (strain 168), UniProt P54493)", "T1 sequence (P54493 whole entry)": "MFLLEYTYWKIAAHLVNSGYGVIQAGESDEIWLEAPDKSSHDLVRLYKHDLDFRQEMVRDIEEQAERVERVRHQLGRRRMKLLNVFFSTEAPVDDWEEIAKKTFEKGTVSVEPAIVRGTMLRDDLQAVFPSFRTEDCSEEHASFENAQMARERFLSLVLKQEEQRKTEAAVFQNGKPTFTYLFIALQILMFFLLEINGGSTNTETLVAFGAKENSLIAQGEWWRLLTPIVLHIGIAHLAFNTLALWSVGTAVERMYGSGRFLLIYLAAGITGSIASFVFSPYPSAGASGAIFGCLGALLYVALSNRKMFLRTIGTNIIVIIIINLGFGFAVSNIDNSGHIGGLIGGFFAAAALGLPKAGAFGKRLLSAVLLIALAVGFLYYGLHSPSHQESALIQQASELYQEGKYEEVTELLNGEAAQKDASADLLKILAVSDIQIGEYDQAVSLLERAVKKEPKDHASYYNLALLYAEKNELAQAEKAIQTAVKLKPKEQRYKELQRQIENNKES", "assay": "Competitive inhibition of Bacillus subtilis rhomboid YqgP preincubated for 30 mins followed by FP-Rh addition measured after 1 hr by gel-based ABPP method"}, "[3]": {"test_system": "Escherichia coli", "assay": "(§1) Inhibition of rhomboid GlpG in Escherichia coli MC4100 outer membrane permeabilized mutant containing delta-lptD4213 preincubated for 15 mins followed by pPR61 (pD881-SR_MBP-LacYTM2-Trx) substrate addition measured after 4 hrs by fluorescence based Western blot"}, "[4]": {"assay": "Inhibition of bovine trypsin using Z-GGR-AMC as substrate preincubated for 30 mins followed by substrate addition measured for 20 mins by fluorescence assay", "parameters": "species or system Bos taurus"}, "[5]": {"assay": "Inhibition of bovine chymotrypsin using Suc-AAF-AMC as substrate preincubated for 30 mins followed by substrate addition measured for 20 mins by fluorescence assay", "parameters": "species or system Bos taurus"}, "[6]": {"test_system": "Escherichia coli", "assay": "Reversible inhibition of Escherichia coli rhomboid GlpG assessed as residual activity at 10 uM preincubated for 30 mins followed by excess drug removal for 30 mins before FP-Rh addition measured after 1 hr by ABPP method"}, "[7]": {"test_system": "Escherichia coli", "assay": "Competitive inhibition of Escherichia coli rhomboid GlpG assessed as residual enzyme activity at 100 uM preincubated for 30 mins followed by FP-Rh addition measured after 1 hr by gel-based ABPP method"}, "[8]": {"target": "T2, Rhomboid protease GluP (Bacillus subtilis (strain 168)) (UniProt P54493)", "T2 sequence (whole entry)": "T1 sequence (P54493 whole entry)", "assay": "Competitive inhibition of Bacillus subtilis rhomboid YqgP assessed as residual enzyme activity at 100 uM preincubated for 30 mins followed by FP-Rh addition measured after 1 hr by gel-based ABPP method"}, "[9]": {"test_system": "Escherichia coli", "assay": "Irreversible inhibition of Escherichia coli rhomboid GlpG assessed as residual activity at 10 uM preincubated for 30 mins followed by excess drug removal for 0 to 240 mins before FP-Rh addition measured after 1 hr by ABPP method"}, "[10]": {"assay": "as §1"}, "[11]": {"assay": "Selectivity index, ratio of IC50 for competitive inhibition of Bacillus subtilis rhomboid YqgP to IC50 for competitive inhibition of Escherichia coli rhomboid GlpG"}, "[12]": {"test_system": "Escherichia coli", "assay": "Competitive inhibition of Escherichia coli rhomboid GlpG at 100 uM preincubated for 30 mins followed by FP-Rh addition measured after 1 hr by gel-based ABPP method"}, "[13]": {"target": "T2, Rhomboid protease GluP (Bacillus subtilis (strain 168))", "assay": "Competitive inhibition of Bacillus subtilis rhomboid YqgP at 100 uM preincubated for 30 mins followed by FP-Rh addition measured after 1 hr by gel-based ABPP method"}, "[14]": {"assay": "Selectivity index, ratio of IC50 for competitive inhibition of Escherichia coli rhomboid GlpG to IC50 for competitive inhibition of Bacillus subtilis rhomboid YqgP"}, "[15]": {"test_system": "Escherichia coli", "assay": "Reversible inhibition of Escherichia coli rhomboid GlpG assessed as residual activity preincubated for 30 mins followed by excess drug removal for 240 mins before FP-Rh addition measured after 1 hr by ABPP method"}}, "note": "Activity calls are given as the source filed them. No cut-off for these calls is given here."}
{"smiles": "O=c1oc(OCc2ccccc2)nc2ccccc12", "values": [{"measurement": "IC50", "setting": "[1]", "result": 2500, "unit": "nM"}, {"measurement": "IC50", "setting": "[2]", "result": 3700, "unit": "nM"}, {"measurement": "inhibition", "setting": "[3]", "result": "Active"}, {"measurement": "IC50", "setting": "[4]", "result": "< 100", "unit": "nM"}, {"measurement": "IC50", "setting": "[5]", "result": "< 100", "unit": "nM"}, {"measurement": "inhibition", "setting": "[6]", "result": "inactive"}, {"measurement": "Activity", "setting": "[7]", "result": "< 5", "unit": "%"}, {"measurement": "Activity", "setting": "[8]", "result": "< 5", "unit": "%"}]}
{"smiles": "O=c1oc(OCc2ccccc2)nc2cccc(Cl)c12", "values": [{"measurement": "IC50", "setting": "[1]", "result": 1200, "unit": "nM"}, {"measurement": "IC50", "setting": "[2]", "result": 1600, "unit": "nM"}, {"measurement": "inhibition", "setting": "[3]", "result": "inactive"}, {"measurement": "IC50", "setting": "[4]", "result": "< 100", "unit": "nM"}, {"measurement": "IC50", "setting": "[5]", "result": "< 100", "unit": "nM"}, {"measurement": "inhibition", "setting": "[9]", "result": "Active"}, {"measurement": "Activity", "setting": "[7]", "result": "< 5", "unit": "%"}, {"measurement": "Activity", "setting": "[8]", "result": "< 5", "unit": "%"}]}
{"smiles": "Cc1cccc2nc(OCc3ccccc3)oc(=O)c12", "values": [{"measurement": "IC50", "setting": "[1]", "result": 1000, "unit": "nM"}, {"measurement": "IC50", "setting": "[2]", "result": 15000, "unit": "nM"}, {"measurement": "IC50", "setting": "[10]", "result": 8500, "unit": "nM"}, {"measurement": "IC50", "setting": "[4]", "result": "< 100", "unit": "nM"}, {"measurement": "IC50", "setting": "[5]", "result": "< 100", "unit": "nM"}, {"measurement": "inhibition", "setting": "[9]", "result": "Active"}, {"measurement": "Activity", "setting": "[7]", "result": "< 5", "unit": "%"}, {"measurement": "Activity", "setting": "[8]", "result": "< 5", "unit": "%"}, {"measurement": "Ratio IC50", "setting": "[11]", "result": 15}]}
{"smiles": "C#CCCCc1nc2cccc(Cl)c2c(=O)o1", "values": [{"measurement": "inhibition", "setting": "[12]", "result": "Active"}, {"measurement": "inhibition", "setting": "[13]", "result": "Active"}]}
{"smiles": "O=c1oc(OCCc2ccccc2)nc2cccc(Cl)c12", "values": [{"measurement": "inhibition", "setting": "[12]", "result": "inactive"}, {"measurement": "inhibition", "setting": "[13]", "result": "inactive"}]}
{"smiles": "O=c1oc(OCc2ccccc2)nc2cc3ccccc3cc12", "values": [{"measurement": "IC50", "setting": "[1]", "result": 2400, "unit": "nM"}, {"measurement": "IC50", "setting": "[2]", "result": 7300, "unit": "nM"}, {"measurement": "IC50", "setting": "[4]", "result": "< 100", "unit": "nM"}, {"measurement": "IC50", "setting": "[5]", "result": "< 100", "unit": "nM"}, {"measurement": "Activity", "setting": "[7]", "result": "< 5", "unit": "%"}, {"measurement": "Activity", "setting": "[8]", "result": "< 5", "unit": "%"}]}
{"smiles": "C#CCCCc1nc2cccc(C)c2c(=O)o1", "values": [{"measurement": "inhibition", "setting": "[12]", "result": "Active"}, {"measurement": "inhibition", "setting": "[13]", "result": "Active"}]}
{"smiles": "C#CCOc1nc2cccc(Cl)c2c(=O)o1", "values": [{"measurement": "IC50", "setting": "[1]", "result": 1700, "unit": "nM"}, {"measurement": "IC50", "setting": "[2]", "result": 6200, "unit": "nM"}, {"measurement": "inhibition", "setting": "[3]", "result": "inactive"}, {"measurement": "IC50", "setting": "[4]", "result": 1200, "unit": "nM"}, {"measurement": "IC50", "setting": "[5]", "result": 410, "unit": "nM"}, {"measurement": "inhibition", "setting": "[9]", "result": "Active"}, {"measurement": "inhibition", "setting": "[12]", "result": "Active"}, {"measurement": "inhibition", "setting": "[13]", "result": "Active"}, {"measurement": "Activity", "setting": "[7]", "result": "< 5", "unit": "%"}, {"measurement": "Activity", "setting": "[8]", "result": "< 5", "unit": "%"}]}
{"smiles": "O=c1oc(OCc2ccccc2)nc2c(Cl)cccc12", "values": [{"measurement": "IC50", "setting": "[1]", "result": 63000, "unit": "nM"}, {"measurement": "IC50", "setting": "[2]", "result": 470, "unit": "nM"}, {"measurement": "IC50", "setting": "[4]", "result": "< 100", "unit": "nM"}, {"measurement": "IC50", "setting": "[5]", "result": "< 100", "unit": "nM"}, {"measurement": "Activity", "setting": "[7]", "result": "< 5", "unit": "%"}, {"measurement": "Activity", "setting": "[8]", "result": "< 5", "unit": "%"}, {"measurement": "Ratio IC50", "setting": "[14]", "result": 130}]}
{"smiles": "C#CCOc1nc2cccc(C)c2c(=O)o1", "values": [{"measurement": "IC50", "setting": "[2]", "result": 2800, "unit": "nM"}, {"measurement": "IC50", "setting": "[4]", "result": 1100, "unit": "nM"}, {"measurement": "IC50", "setting": "[5]", "result": "< 100", "unit": "nM"}, {"measurement": "Activity", "setting": "[7]", "result": "< 5", "unit": "%"}, {"measurement": "Activity", "setting": "[8]", "result": "< 5", "unit": "%"}]}
{"smiles": "Cc1ccc2nc(OCc3ccccc3)oc(=O)c2c1", "values": [{"measurement": "IC50", "setting": "[2]", "result": 4600, "unit": "nM"}, {"measurement": "IC50", "setting": "[4]", "result": "< 100", "unit": "nM"}, {"measurement": "IC50", "setting": "[5]", "result": "< 100", "unit": "nM"}, {"measurement": "Activity", "setting": "[7]", "result": "< 5", "unit": "%"}, {"measurement": "Activity", "setting": "[8]", "result": "< 5", "unit": "%"}]}
{"smiles": "O=c1oc(Cl)c(Cl)c2ccccc12", "values": [{"measurement": "Activity", "setting": "[15]", "result": 50, "unit": "%"}]}
{"smiles": "C#CCCOc1oc(=O)c2cc(N)ccc2c1Cl", "values": [{"measurement": "inhibition", "setting": "[12]", "result": "Active"}, {"measurement": "inhibition", "setting": "[13]", "result": "Active"}]}
{"smiles": "CCOc1nc2cccc(Cl)c2c(=O)o1", "values": [{"measurement": "IC50", "setting": "[1]", "result": 2200, "unit": "nM"}, {"measurement": "IC50", "setting": "[2]", "result": 7100, "unit": "nM"}, {"measurement": "inhibition", "setting": "[3]", "result": "inactive"}, {"measurement": "IC50", "setting": "[4]", "result": "< 100", "unit": "nM"}, {"measurement": "IC50", "setting": "[5]", "result": "< 100", "unit": "nM"}, {"measurement": "inhibition", "setting": "[9]", "result": "Active"}, {"measurement": "Activity", "setting": "[7]", "result": "< 5", "unit": "%"}, {"measurement": "Activity", "setting": "[8]", "result": "< 5", "unit": "%"}]}
{"smiles": "Cc1cccc2nc(OCCc3ccccc3)oc(=O)c12", "values": [{"measurement": "inhibition", "setting": "[12]", "result": "inactive"}, {"measurement": "inhibition", "setting": "[13]", "result": "inactive"}]}
